In article PMC5958743, “A Novel Catecholopyrimidine Based Small Molecule PDE4B Inhibitor Suppresses Inflammatory Cytokines in Atopic Mice” (Frontiers in Pharmacology, 2018):

What was measured:
[1] = molecular target: T1, PDE1A (Homo sapiens, UniProt P54750); assay: PDE enzyme inhibitor assay (LANCE Ultra cAMP), PDE1A; assay type: biochemical; details: 0.1 ng/well enzyme, 3 nM cAMP, 37°C 1 h
T1 construct: purchased BPS Biosciences
Protocol: (§1) The enzyme inhibition assay was performed against human PDE enzymes (PDE1A, PDE3A, PDE4A, PDE4B, PDE4C, PDE4D, and PDE7A; BPS Biosciences, San Diego, CA, United States) according to the manufacturer’s instructions (LANCE Ultra cAMP assay kit; Perkin Elmer, United States). In each well, 5 μl of 3 nM cAMP, 2.5 μl of PDE enzyme (0.1 ng/well), and 2.5 μl of inhibitor solution were added, and incubated at 37°C for 1 h. After incubation, 5 μL each of Eu-cAMP and ULight-anti-cAMP detection reagent supplemented with 1 mM of IBMX were added. The reaction mixture was incubated at 37°C for 1 h. After incubation, emission signals were collected at 665 nm using EnVision Multilable Reader (Perkin Elmer, United States).

[2] = molecular target: PDE3B (Homo sapiens, UniProt Q13370); assay: PDE enzyme inhibitor assay (LANCE Ultra cAMP), PDE3B; assay type: biochemical; details: 0.1 ng/well enzyme, 3 nM cAMP, 37°C 1 h
Chain of PDE3B (Q13370 whole entry): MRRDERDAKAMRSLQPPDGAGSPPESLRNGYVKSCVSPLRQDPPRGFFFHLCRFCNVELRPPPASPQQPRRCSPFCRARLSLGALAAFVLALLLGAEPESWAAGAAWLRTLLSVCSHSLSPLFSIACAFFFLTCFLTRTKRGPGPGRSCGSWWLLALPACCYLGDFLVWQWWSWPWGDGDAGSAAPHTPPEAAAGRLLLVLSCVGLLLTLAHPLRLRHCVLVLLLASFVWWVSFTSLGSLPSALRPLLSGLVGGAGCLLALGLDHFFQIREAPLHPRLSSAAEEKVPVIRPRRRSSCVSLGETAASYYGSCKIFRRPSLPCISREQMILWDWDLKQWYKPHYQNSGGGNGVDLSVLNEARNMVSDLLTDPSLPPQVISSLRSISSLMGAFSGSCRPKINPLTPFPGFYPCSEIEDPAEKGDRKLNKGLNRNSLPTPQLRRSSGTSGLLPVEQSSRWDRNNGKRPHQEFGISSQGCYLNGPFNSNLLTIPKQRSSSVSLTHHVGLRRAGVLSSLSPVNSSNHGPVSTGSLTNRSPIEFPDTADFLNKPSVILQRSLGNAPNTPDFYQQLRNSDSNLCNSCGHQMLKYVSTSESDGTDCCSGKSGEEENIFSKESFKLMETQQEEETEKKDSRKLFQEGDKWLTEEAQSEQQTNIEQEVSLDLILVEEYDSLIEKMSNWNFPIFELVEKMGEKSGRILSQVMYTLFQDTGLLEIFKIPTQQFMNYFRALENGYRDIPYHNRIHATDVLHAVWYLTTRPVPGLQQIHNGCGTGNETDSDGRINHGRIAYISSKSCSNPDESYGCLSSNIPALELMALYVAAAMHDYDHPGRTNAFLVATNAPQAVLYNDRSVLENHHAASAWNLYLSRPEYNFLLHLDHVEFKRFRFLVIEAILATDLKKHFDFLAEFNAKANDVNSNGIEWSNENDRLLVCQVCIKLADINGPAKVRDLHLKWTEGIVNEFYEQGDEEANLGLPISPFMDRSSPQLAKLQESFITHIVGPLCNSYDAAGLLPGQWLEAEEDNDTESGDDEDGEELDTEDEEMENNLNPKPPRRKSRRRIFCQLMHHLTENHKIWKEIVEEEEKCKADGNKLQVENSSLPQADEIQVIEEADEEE

[3] = molecular target: T2, PDE4A4 (Homo sapiens, UniProt P27815); assay: PDE enzyme inhibitor assay (LANCE Ultra cAMP), PDE4A; assay type: biochemical; details: 0.1 ng/well enzyme, 3 nM cAMP, 37°C 1 h
T2 construct: purchased BPS Biosciences
Protocol: as §1

[4] = molecular target: T3, PDE4B1 (Homo sapiens, UniProt Q07343); assay: PDE enzyme inhibitor assay (LANCE Ultra cAMP), PDE4B; assay type: biochemical
T3 construct: purchased BPS Biosciences
T3 sequence (Q07343 whole entry): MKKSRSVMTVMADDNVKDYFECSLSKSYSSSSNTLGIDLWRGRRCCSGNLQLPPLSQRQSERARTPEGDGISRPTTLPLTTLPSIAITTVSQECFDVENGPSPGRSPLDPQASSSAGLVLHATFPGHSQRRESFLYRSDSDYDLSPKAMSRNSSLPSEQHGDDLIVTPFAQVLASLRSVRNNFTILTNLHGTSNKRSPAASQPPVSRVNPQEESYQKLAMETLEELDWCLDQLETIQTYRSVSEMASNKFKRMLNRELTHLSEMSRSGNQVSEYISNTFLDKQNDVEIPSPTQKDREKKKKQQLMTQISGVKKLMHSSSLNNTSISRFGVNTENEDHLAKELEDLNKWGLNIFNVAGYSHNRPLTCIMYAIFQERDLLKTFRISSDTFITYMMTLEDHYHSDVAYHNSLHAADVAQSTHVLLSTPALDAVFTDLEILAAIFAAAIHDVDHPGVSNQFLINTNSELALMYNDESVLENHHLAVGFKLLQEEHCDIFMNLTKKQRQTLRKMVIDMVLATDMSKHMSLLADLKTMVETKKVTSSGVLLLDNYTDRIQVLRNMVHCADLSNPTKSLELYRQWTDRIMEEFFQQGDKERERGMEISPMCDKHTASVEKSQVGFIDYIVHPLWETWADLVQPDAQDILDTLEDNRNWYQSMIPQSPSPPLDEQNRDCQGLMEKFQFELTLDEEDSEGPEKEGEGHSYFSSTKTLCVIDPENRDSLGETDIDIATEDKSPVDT

[5] = molecular target: T4, PDE4C1 (Homo sapiens, UniProt Q08493); assay: PDE enzyme inhibitor assay (LANCE Ultra cAMP), PDE4C; assay type: biochemical; details: 0.1 ng/well enzyme, 3 nM cAMP, 37°C 1 h
T4 construct: purchased BPS Biosciences
T4 sequence (Q08493 whole entry): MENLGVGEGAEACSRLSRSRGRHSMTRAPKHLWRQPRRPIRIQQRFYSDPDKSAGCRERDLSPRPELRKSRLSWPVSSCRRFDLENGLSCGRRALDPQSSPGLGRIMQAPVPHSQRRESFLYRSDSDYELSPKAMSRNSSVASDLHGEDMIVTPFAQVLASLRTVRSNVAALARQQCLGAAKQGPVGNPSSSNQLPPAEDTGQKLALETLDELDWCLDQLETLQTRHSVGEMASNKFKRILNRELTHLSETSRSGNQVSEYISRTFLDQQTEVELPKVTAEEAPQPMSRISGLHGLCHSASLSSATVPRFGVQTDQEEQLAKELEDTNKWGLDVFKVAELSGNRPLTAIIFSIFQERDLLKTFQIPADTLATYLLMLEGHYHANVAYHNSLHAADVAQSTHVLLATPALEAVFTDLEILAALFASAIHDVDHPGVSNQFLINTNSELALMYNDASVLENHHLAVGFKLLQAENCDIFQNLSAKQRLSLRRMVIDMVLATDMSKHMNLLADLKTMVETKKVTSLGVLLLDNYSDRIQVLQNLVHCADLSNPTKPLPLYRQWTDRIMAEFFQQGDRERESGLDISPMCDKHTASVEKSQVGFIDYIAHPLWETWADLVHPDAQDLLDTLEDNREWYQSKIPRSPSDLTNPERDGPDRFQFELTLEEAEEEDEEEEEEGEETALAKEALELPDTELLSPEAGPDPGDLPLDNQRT
Protocol: as §1

[6] = molecular target: T5, PDE4D7 (Homo sapiens, UniProt Q08499); assay: PDE enzyme inhibitor assay (LANCE Ultra cAMP), PDE4D; assay type: biochemical
T5 construct: purchased BPS Biosciences
T5 sequence (Q08499 1-748 isoform Q08499-11): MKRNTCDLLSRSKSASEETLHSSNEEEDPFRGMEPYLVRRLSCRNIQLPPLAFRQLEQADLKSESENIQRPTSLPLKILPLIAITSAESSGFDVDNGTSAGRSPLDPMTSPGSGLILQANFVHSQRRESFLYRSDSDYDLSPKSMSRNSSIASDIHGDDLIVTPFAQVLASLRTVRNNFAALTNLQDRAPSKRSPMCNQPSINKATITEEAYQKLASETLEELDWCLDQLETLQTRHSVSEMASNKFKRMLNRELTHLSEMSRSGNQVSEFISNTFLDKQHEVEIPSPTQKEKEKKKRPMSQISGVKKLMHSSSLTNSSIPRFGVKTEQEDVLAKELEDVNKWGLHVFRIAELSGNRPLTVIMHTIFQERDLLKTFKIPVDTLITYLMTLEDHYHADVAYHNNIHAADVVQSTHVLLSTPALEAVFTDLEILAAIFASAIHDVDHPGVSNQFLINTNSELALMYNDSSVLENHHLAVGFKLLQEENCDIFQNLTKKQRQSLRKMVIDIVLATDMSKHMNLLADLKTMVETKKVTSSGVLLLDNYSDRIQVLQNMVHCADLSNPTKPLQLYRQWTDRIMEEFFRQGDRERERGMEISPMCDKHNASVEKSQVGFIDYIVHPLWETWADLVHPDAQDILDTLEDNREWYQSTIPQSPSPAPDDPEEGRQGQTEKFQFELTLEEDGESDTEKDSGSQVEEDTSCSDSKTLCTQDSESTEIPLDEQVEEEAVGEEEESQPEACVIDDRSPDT
Protocol: as §1

[7] = molecular target: T6, PDE7 (Homo sapiens, UniProt Q13946); assay: PDE enzyme inhibitor assay (LANCE Ultra cAMP), PDE7; assay type: biochemical; details: 0.1 ng/well enzyme, 3 nM cAMP, 37°C 1 h
T6 construct: purchased BPS Biosciences
T6 sequence (Q13946 whole entry): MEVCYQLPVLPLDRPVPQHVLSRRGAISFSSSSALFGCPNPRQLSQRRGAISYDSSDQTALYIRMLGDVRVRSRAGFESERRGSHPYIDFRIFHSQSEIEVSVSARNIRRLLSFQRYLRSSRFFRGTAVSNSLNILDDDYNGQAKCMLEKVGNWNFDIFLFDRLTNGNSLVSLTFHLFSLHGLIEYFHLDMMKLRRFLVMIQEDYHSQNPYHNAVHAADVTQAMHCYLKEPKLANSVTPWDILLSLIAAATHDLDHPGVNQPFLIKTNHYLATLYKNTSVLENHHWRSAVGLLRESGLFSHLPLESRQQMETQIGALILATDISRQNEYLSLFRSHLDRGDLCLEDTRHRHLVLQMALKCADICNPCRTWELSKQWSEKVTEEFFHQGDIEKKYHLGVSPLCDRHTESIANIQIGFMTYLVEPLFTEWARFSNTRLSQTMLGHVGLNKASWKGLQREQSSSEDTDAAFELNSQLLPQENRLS
Protocol: as §1

[8] = test system: DNCB-induced NC/Nga mice; assay: DNCB-induced atopic dermatitis model, evaluation of skin lesion and organs; assay type: in vivo, mouse
Protocol: (§2) Male NC/Nga mice, 7-weeks-old, were purchased from Central Lab Animal Inc., South Korea. All mice were housed in specific pathogen-free conditions at the animal facility center of the College of Pharmacy at Seoul National University (Seoul, Korea), and were maintained at 24 – 26°C with a 12 h light and dark cycle. Animal experiments were conducted in accordance with protocols approved by the Institutional Animal Care and Use Committee of Seoul National University.
(§3) NC/Nga mice were classified into six groups (n = 6): (1) vehicle alone, acetone-olive oil (Sigma-Aldrich, St. Louis, MO, United States) in a ratio of 3:1 was used as a vehicle; (2) 1% of compound-1 with vehicle alone; (3) 0.3% of compound-2 with vehicle alone; (4) DNCB+vehicle; (5) DNCB + 1% of compound-1 mixed with vehicle; and (6) DNCB + 0.3% of compound-2 mixed with vehicle. DNCB (Sigma-Aldrich, St. Louis, MO, United States) was used to induce AD on the dorsal skin of the mice. Compound 1 and 2 were dissolved in 150 μl of vehicle and topically applied on the atopic tissue. Hair on the backs of the mice were removed using an electric clipper. Two days later, 150 μl of 1% DNCB was dissolved in the vehicle and applied on the dorsal skin twice with an interval period of 4 days. Afterward, 150 μl of 0.2% DNCB dissolved in the vehicle was applied to challenge the dorsal skin twice-a-week for 5 weeks. AD-induced mice were co-treated with either compound-1 or compound-2 once daily from day six onward until the end of the experiments.
Dermatitis score was measured according to a previously established method, once-a-week for 5 weeks ([Matsuda et al., 1997]). Skin features of dermatitis, such as erythema/hemorrhage, edema, excoriation/erosion, and scaling/dryness were considered in the evaluation. Each symptom was scored as follows: 0 (none); 1 (mild); 2 (moderate); and 3 (severe). The sum of all the scores was defined as the dermatitis score of individual mice, which ranged between 0 and 12. In addition, the scratching behavior of the experimental animals was measured once-a-week for 5 weeks. Specifically, we measured the frequency with which the mice rubbed their dorsal skin, hind paws, nose, and ears for 10 min.

[9] = test system: DNCB-induced NC/Nga mice; assay: DNCB-induced atopic dermatitis model, histopathology and immunohistochemistry of dorsal skin; assay type: in vivo, mouse
Protocol: as §2, §3
Skin samples collected from the experimental mice were fixed by using 10% neutral buffered formalin, and embedded in paraffin. 4-μm thin tissue sections were prepared and stained with hematoxylin and eosin (H&E; Sigma-Aldrich, United States). To investigate the mast cell infiltration, sections were stained with toluidine blue (Sigma-Aldrich, United States). For immunohistochemical analysis, tissue sections were microwaved in sodium citrate buffer for 10 min to retrieve the antigen/epitope. After incubating with 0.1% triton X-100 containing phosphate buffered saline (PBS), sections were blocked with 10% FBS. Then, sections were incubated overnight with primary antibodies specific for IL-4, 5, 17, IFN-γ, and CD4, respectively (Santa Cruz Biotechnology, Santa Cruz, CA, United States). After treatment with 0.3% H2O2 in 0.1 M PBS for 15 min, sections were incubated with HRP-conjugated secondary antibodies specific for IL-4, 5, 17, IFN-γ, and CD4 for 1 h at room temperature. Diaminobenzidine was used to detect peroxidase activity, which was photographed using an Olympus AX70 light microscope (Tokyo, Japan).

[10] = test system: DNCB-induced NC/Nga mice; assay: DNCB-induced atopic dermatitis model, serum IgE and cytokines by ELISA; assay type: in vivo, mouse
Protocol: as §2, §3
On the final day of the experimental scheme, blood samples were collected from the experimental animals. Serum was isolated and stored at -80°C along with protease inhibitor cocktail for later use (Thermo Fisher Scientific, United States). Serum IL-4, IL-5, IL-17, IFN-γ, and IgE levels were measured according to the manufacturer’s instructions (Biolegend, San Diego, CA, United States; IL-4-431101; IL-17-432501; IL-5-431204; IFN-γ- 430801; IgE-432401; TNF-α- 430901). Serum samples were diluted five-fold for the cytokine assay. 10,000-fold diluted serum samples were utilized for the IgE assay. Absorbance was measured immediately at 492 nm using a multiplate reader (Molecular Devices Spectramax M5, Sunnyvale, CA, United States).

[11] = test system: Raw 264.7 cells; assay: Intracellular cAMP in LPS-stimulated macrophage cell line (ELISA); assay type: cell-based; details: 30 nM compound 1 or 15 nM compound 2 for 1 h, then 1 μM LPS 30 min
Protocol: (§4) The macrophage cell line, Raw 264.7 was maintained for 24 h in serum free DMEM medium. Then, cells were incubated with 30 nM of compound 1 and 15 nM of compound 2 for 1 h. After incubation, 1 μM of LPS (Sigma-Aldrich, United States) was added and incubated for 30 min at 37°C in a humidified 5% CO2 atmosphere. Finally, cells were lysed and supernatants were harvested. Intracellular cAMP levels were measured using the cAMP ELISA kit according to the manufacturer’s instruction (ADI-900-066; Enzo Life Sciences, United States). Similarly, TNFα level was assayed by ELISA analysis according to the manufacturer’s protocol (LEGEND MAX^TM Human TNF-α ELISA Kit, San Diego, CA, United States). Concentration is expressed in pg/mL.

[12] = test system: Raw 264.7 cells; assay: LPS-induced TNF-α in macrophage cell line (ELISA); assay type: cell-based; details: 30 nM compound 1 or 15 nM compound 2, 1 μM LPS 30 min
Protocol: as §4

[13] = 0.1 ng/well enzyme, 3 nM cAMP, 37°C 1 h
[14] = DNCB-induced mice, topical 1% compound 1 or 0.3% compound 2, vs DNCB alone
[15] = topical 1% compound 1 or 0.3% compound 2, vs DNCB alone
[16] = topical 1% compound 1 (p < 0.05) or 0.3% compound 2 (p < 0.01), vs DNCB alone

T1 sequence (P54750 whole entry): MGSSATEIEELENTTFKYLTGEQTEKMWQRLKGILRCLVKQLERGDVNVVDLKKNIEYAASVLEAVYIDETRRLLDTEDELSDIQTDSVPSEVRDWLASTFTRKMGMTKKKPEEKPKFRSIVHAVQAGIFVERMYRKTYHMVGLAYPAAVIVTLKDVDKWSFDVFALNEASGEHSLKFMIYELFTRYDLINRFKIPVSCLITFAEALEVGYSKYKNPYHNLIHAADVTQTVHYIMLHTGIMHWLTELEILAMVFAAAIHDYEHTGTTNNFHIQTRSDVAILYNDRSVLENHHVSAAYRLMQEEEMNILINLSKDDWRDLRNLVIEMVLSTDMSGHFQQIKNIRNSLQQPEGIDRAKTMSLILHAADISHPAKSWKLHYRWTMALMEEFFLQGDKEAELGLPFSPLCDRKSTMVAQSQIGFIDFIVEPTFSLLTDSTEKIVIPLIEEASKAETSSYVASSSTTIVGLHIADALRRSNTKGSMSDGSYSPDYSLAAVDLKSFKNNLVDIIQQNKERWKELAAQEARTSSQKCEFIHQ

Structure (SMILES): COc1ccc(-c2nc(C(F)(F)F)ncc2C(=O)Nc2ccncc2)cc1OC [compound 2, 4-(3,4-dimethoxyphenyl)-N-(pyridin-4-yl)-2-(trifluoromethyl)pyrimidine-5-carboxamide]
- IC50 [1]: 98 ± 8.45 nM
- IC50 [2]: 169 ± 3.78 nM
- IC50 [3]: 152 ± 1.33 nM
- IC50 [4, 13]: 15 ± 0.4 nM
- specificity against PDE4B compared to other PDE enzymes ([4]; versus PDE1A, PDE3B, PDE4A, PDE4C, PDE4D, PDE7): high specificity against PDE4B
- IC50 [5]: 57 ± 4.87 nM
- IC50 [6, 13]: 108 ± 3.78 nM
- concentration required to inhibit PDE4D relative to PDE4B ([6]; PDE4D versus PDE4B): nearly sevenfold higher concentration
- IC50 [7]: 250 ± 14.6 nM
- dorsal skin thickness ([8]; DNCB-induced mice, end of experiment, topical 1% compound 1 or 0.3% compound 2, DNCB alone 1.19 mm, control 0.45 mm): 0.64 mm
- spleen weight [8, 14]: significantly reduced
- subiliac lymph node size [8, 14]: drastically reduced
- subiliac lymph node weight [8, 14]: drastically reduced
- week after which significant reduction in dermatitis score was observed ([8]; DNCB-induced mice, topical once daily, 1% compound 1 or 0.3% compound 2): second
- scratching frequency (DNCB-induced itching sensation) ([8]; DNCB-induced mice, topical once daily, 1% compound 1 or 0.3% compound 2, measured once-a-week for 5 weeks): significantly (p < 0.01) inhibited
- dermatitis score ([8]; DNCB-induced mice, topical once daily, 1% compound 1 or 0.3% compound 2, p < 0.01 vs DNCB): significant reduction
- AD-like skin features (erythema, hemorrhage, dry skin) ([8]; DNCB-induced mice, topical once daily, 1% compound 1 or 0.3% compound 2, vs DNCB alone): reduced levels of erythema and hemorrhage and dry skin
- skin feature of compound alone treated mice ([8]; no DNCB, topical 1% compound 1 or 0.3% compound 2 with vehicle alone): normal skin feature, no sign of allergy was observed
- mast cell infiltration in the epidermis region (toluidine blue), number of mast cells ([9]; topical 1% compound 1 or 0.3% compound 2, DNCB alone 97 ± 10.58, control 13 ± 2): 29.41 ± 6 per 350 μm^2
- CD4+ cells in the skin (immunohistochemistry) [9, 15]: reduced levels of CD4+ cells
- epidermal thickening (H&E) [9, 15]: reduced epidermal thickening
- infiltration of inflammatory cells into epidermis and dermis (H&E) [9, 15]: reduced levels of inflammatory cells
- serum IL-4 level [10, 16]: significantly reversed
- serum IL-5 level [10, 16]: significantly reversed
- serum IL-17 level ([10]; topical 1% compound 1 (p < 0.5) or 0.3% compound 2 (p < 0.01), vs DNCB alone): reduced level
- serum IFN-γ level (reduced by DNCB) ([10]; topical 1% compound 1 or 0.3% compound 2): significantly reversed
- serum IgE level ([10]; topical 1% compound 1 or 0.3% compound 2, p < 0.01 vs DNCB): significantly reduced
- intracellular levels of cAMP [11]: significantly improved
- LPS-induced TNF-α synthesis [12]: effectively inhibited
